# Results published in patent US5597835A, “Acyl CoA:cholesterol acyltransferase inhibitors” (Korea Institute of Science and Technology, priority 1993, dated 1997).
# How the values were obtained:
# rats = assay: Acute toxic effect in rats; format: in vivo, rat; details: dose and route not stated
# [1] = Solubility (physicochemical properties)
# [2] = biological target: T1, acyl CoA:cholesterol acyltransferase (ACAT) (Rattus norvegicus, UniProt Q7TQM4); assay: ACAT inhibiting activity (modified method of Tabas et al.; [1-14C] oleoyl-CoA, rat liver microsomal enzyme); format: biochemical; details: 10 μM [1-14C] oleoyl-CoA, pH 7.4, 37° C., 15 minutes, read-out: IC50 (inhibitor concentration which reduces the activity of ACAT by 50%)
# T1 construct: microsomal enzyme (10 mg/ml of protein) derived from rat liver tissue; from tissue; host or cells: rat liver microsomes
# T1 sequence (Q7TQM4 1-524): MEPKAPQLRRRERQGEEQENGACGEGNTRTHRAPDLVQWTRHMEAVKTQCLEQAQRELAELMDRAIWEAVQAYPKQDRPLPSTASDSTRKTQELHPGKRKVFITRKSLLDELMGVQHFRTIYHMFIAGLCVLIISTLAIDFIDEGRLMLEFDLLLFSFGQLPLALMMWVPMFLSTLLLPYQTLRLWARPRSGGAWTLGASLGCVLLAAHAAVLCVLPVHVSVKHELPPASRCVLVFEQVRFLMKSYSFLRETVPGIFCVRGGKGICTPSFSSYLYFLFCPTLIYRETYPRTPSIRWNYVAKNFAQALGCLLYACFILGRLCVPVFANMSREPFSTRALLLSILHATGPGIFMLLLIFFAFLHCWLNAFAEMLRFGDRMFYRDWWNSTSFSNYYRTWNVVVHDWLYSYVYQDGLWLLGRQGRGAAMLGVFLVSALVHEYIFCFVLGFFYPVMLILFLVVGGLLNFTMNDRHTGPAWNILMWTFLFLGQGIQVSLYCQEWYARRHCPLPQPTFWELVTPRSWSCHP
# Description: ACAT activity was determined as follows in accordance with a modified method of Tabas et al. described in J. Biol. Chem., 261, 3147-3154 (1986).
# 10 μl of sample, 4.0 μl of microsomal enzyme (10 mg/ml of protein) derived from rat liver tissue, 20 μl of analysis buffer(0.5M KH2 PO4, 10 mM dithiothreitol (DTT), pH 7.4), 15 μl of 40 mg/ml bovine serum albumin(essentially free of fatty acids), 2 μl of 20 mg/ml cholesterol and 41 μl of H2 O were mixed together and the resulting mixture was reacted at 37° C. for 15 minutes. 8 μl of [1-^14 C] oleoyl-CoA(0.05 μCi, final concentration of 10 μM) was added to the mixture and the reaction mixture was reacted at 37° C. for 15 minutes.
# 1 ml of isopropanol-heptane (4:1(v/v)) was added to the mixture to stop the reaction, 0.6 ml of heptane and 0.4 ml of said analysis buffer(5-fold diluted) were added thereto and the resulting mixture was centrifuged at 2,000 g for 2 minutes to obtain the supernatant.
# 5 ml of scintillation cocktail lipoluma (Lumac Co., U.S.A.) was added to 100 μl of the supernatant obtained above and enzyme activity was determined by detecting the amount of cholesteryl ester in the mixture based on the unit of count per minute (CPM) by using a liquid scintillation counter.
# ACAT inhibiting activity was calculated in accordance with the following equation: [formula] wherein the blank composition had the same composition as the above sample but without enzyme and GERI-BP001 or its derivatives, and was reacted at 37° C.; and the control had the same composition as the above sample without GERI-BP001 or its derivatives and was reacted at 37° C. for 15 min.
# female ICR mice = assay: Toxicity of GERI-BP001 in mice (subcutaneous injection); format: in vivo, mouse; details: 500 mg/kg
# Description: 5 female ICR mice weighing 23 g were administered via subcutaneous injection with 500 mg/kg of GERI-BP001.
smiles,measurement,setting,value
CC(=O)O[C@H]1CC[C@]2(C)[C@H]3Cc4c(cc(-c5cccnc5)oc4=O)O[C@]3(C)CC[C@H]2C1(C)C [GERI-BP001],acute toxic effect,rats,acute toxic effect was not found
same,Solubility,"[1]; MeOH, CHCl3",soluble
same,Solubility,"[1]; n-hexane, H2O",insoluble
same,IC50,[2],70 to 80 µM
same,acute toxicity (judgement),"female ICR mice; female ICR mice, subcutaneous injection",does not cause acute toxicity
same,mortality,"female ICR mice; female ICR mice, subcutaneous injection, until 4 days after administration",none of the mice was dead
same,activities of mice,"female ICR mice; mouse, in vivo, sc",increased
same,excited state,"female ICR mice; mouse, in vivo, sc",an excited state was induced
same,time after administration at which excited state was induced,"female ICR mice; mouse, in vivo, sc",about 15 minutes
same,time after administration at which symptoms disappeared,"female ICR mice; mouse, in vivo, sc",about 2 hours
CC(=O)O[C@H]1CC[C@]2(C)[C@H]3C(O)c4c(cc(-c5cccnc5)oc4=O)O[C@]3(C)CC[C@H]2C1(C)C (stereo partly shown) [GERI-BP001-A],IC50,[2],140 to 150 µM
CCC(=O)O[C@H]1CC[C@]2(C)[C@H]3Cc4c(cc(-c5cccnc5)oc4=O)O[C@]3(C)CC[C@H]2C1(C)C [GERI-BP001-B],IC50,[2],70 to 80 µM
CC(=O)O[C@H]1CC[C@]2(C)[C@H]3Cc4c(cc(-c5ccc[n+]([O-])c5)oc4=O)O[C@]3(C)CC[C@H]2C1(C)C [GERI-BP001-C],IC50,[2],110 to 120 µM
